In ChEMBL document CHEMBL5113491, “Discovery of N-benzylarylamide derivatives as novel tubulin polymerization inhibitors capable of activating the Hippo pathway” (Eur J Med Chem, 2022):
pIC50: −log10 of the molar value. Activity calls are given as the source filed them. The rule behind the calls is not given here.

Legend:
MGC-803 [1] = assay: Antiproliferative activity against human MGC-803 cells assessed as inhibition of cell growth measured after 48 hrs by MTT assay; format: functional, cell-based; conditions: MGC-803, 48 h
SGC-7901 [2] = assay: Antiproliferative activity against human SGC-7901 cells assessed as inhibition of cell growth measured after 48 hrs by MTT assay; format: functional, cell-based; conditions: SGC-7901, 48 h
DU-145 = assay: Antiproliferative activity against human DU-145 cells assessed as inhibition of cell growth measured after 48 hrs by MTT assay; format: functional, cell-based; conditions: DU-145, 48 h
A549 = assay: Antiproliferative activity against human A549 cells assessed as inhibition of cell growth measured after 48 hrs by MTT assay; format: functional, cell-based; conditions: A549, 48 h
ECa-109 cell line = assay: Antiproliferative activity against human EC109 cells assessed as inhibition of cell growth measured after 48 hrs by MTT assay; format: functional, cell-based; conditions: ECa-109, 48 h
TE-1 = assay: Antiproliferative activity against human TE-1 cells assessed as inhibition of cell growth measured after 48 hrs by MTT assay; format: functional, cell-based; conditions: TE-1, 48 h
SMMC-7721 = assay: Antiproliferative activity against human SMMC-7721 cells assessed as inhibition of cell growth measured after 48 hrs by MTT assay; format: functional, cell-based; conditions: SMMC-7721, 48 h
SGC-7901 [3] = assay: Antiproliferative activity against human SGC-7901 cells assessed as inhibition of cell growth measured upto 72 hrs by MTT assay; format: functional, cell-based; conditions: dose 15-45 µmol/L, DDE = dose-dependent effect
SGC-7901 [4] = assay: Antiproliferative activity against human SGC-7901 cells assessed as inhibition of cell growth at 15 to 45 […] by MTT assay; format: functional, cell-based; conditions: dose 15-45 µmol/L, time <= 72.0 hrs, TDE = time-dependent effect
GES1 = assay: Cytotoxicity against human GES1 cells assessed as reduction in cell viability at 5 to 40 nM measured after 48 hrs by MTT assay; format: toxicity, cell-based; conditions: ges1, 48 h, 0.04 µM, dose 5-40 nM
HUVEC = assay: Cytotoxicity against human HUVEC cells assessed as reduction in cell viability at 5 to 40 nM measured after 48 hrs by MTT assay; format: toxicity, cell-based; conditions: 0.04 µM, dose 5-40 nM
[5] = target: Tubulin beta (Homo sapiens) (UniProt P68371+Q9H4B7+Q13509+P04350+Q3ZCM7+P07437+Q13885+Q9BVA1+Q9BUF5+A6NNZ2); assay: Binding affinity to beta-tubulin colchicine binding site in human SGC-7901 cells assessed as inhibition of EBI-beta-tubulin adduct band formation preincubated for 2 hrs followed by EBI addition and measured after 2 hrs by EBI competition based Western blotting analysis; format: cell-based; conditions: dose 1-10 µM, time 4.0 hrs, DDE = dose-dependent effect
Tubulin (Homo sapiens) = Tubulin (Homo sapiens) (UniProt P68371+Q9H4B7+P0DPH7+P68366+Q13509+Q71U36+P04350+Q3ZCM7+P07437+P68363+Q9BQE3+Q6PEY2+Q13885+Q9BVA1+Q9BUF5); assay: Induction of microtubule disruption in human SGC-7901 cells measured after 48 hrs by DAPI staining based immunofluorescence assay; format: cell-based; conditions: dose 15-45 nmol/L, DDE = dose-dependent effect
MGC-803 [6] = assay: Activation of MST in human MGC-803 cells assessed as increase in MST phosphorylation measured after 48 hrs by Western blot analysis; format: cell-based; conditions: filed as activator, dose 15-45 nmol/L, DDE = dose-dependent effect
SGC-7901 [7] = assay: Activation of MST in human SGC-7901 cells assessed as increase in MST phosphorylation measured after 48 hrs by Western blot analysis; format: cell-based; conditions: filed as activator, dose 15-45 nmol/L, DDE = dose-dependent effect
MGC-803 [8] = assay: Downregulation of YAP protein expression in human MGC-803 cells measured after 48 hrs by Western blot analysis; format: functional, cell-based; conditions: dose 15-45 nmol/L, DDE = dose-dependent effect
MGC-803 [9] = assay: Downregulation of TAZ protein expression in human MGC-803 cells measured after 48 hrs by Western blot analysis; format: functional, cell-based; conditions: dose 15-45 nmol/L, DDE = dose-dependent effect
SGC-7901 [10] = assay: Induction of cell cycle arrest in human SGC-7901 cells assessed as increase in G2/M phase cells measured after 24 hrs by flow cytometry; format: functional, cell-based; conditions: dose 15-45 nmol/L, DDE = dose-dependent effect
MGC-803 [11] = assay: Induction of G2/M phase cell cycle arrest in human MGC-803 cells assessed as decrease in cyclin A1 expression at 15 to 45 nmol/L measured after 48 hrs by Western blot analysis; format: functional, cell-based; conditions: dose 15-45 nmol/L
MGC-803 [12] = assay: Induction of G2/M phase cell cycle arrest in human MGC-803 cells assessed as decrease in cyclin A2 expression at 15 to 45 nmol/L measured after 48 hrs by Western blot analysis; format: functional, cell-based; conditions: dose 15-45 nmol/L
MGC-803 [13] = assay: Induction of G2/M phase cell cycle arrest in human MGC-803 cells assessed as decrease in cyclin B1 expression at 15 to 45 nmol/L measured after 48 hrs by Western blot analysis; format: functional, cell-based; conditions: dose 15-45 nmol/L
SGC-7901 [14] = assay: Induction of G2/M phase cell cycle arrest in human SGC-7901 cells assessed as decrease in cyclin B1 expression at 15 to 45 nmol/L measured after 48 hrs by Western blot analysis; format: functional, cell-based; conditions: dose 15-45 nmol/L
SGC-7901 [15] = assay: Induction of G2/M phase cell cycle arrest in human SGC-7901 cells assessed as decrease in p-cdc2 (T161) expression at 15 to 45 nmol/L measured after 48 hrs by Western blot analysis; format: functional, cell-based; conditions: dose 15-45 nmol/L
SGC-7901 [16] = assay: Induction of cell apoptosis in human SGC-7901 cells assessed as increase in apoptotic cells measured after 48 hrs by Annexin V/PI staining based flow cytometric analysis; format: functional; conditions: dose 15-45 nmol/L, DDE = dose-dependent effect
MGC-803 [17] = assay: Induction of apoptosis in human MGC-803 cells assessed as decrease in Bcl-xl protein expression measured after 48 hrs by Western blot analysis; format: functional, cell-based; conditions: dose 15-45 nmol/L, DDE = dose-dependent effect
SGC-7901 [18] = assay: Induction of apoptosis in human SGC-7901 cells assessed as decrease in Bcl-xl protein expression measured after 48 hrs by Western blot analysis; format: functional, cell-based; conditions: dose 15-45 nmol/L, DDE = dose-dependent effect
MGC-803 [19] = assay: Induction of apoptosis in human MGC-803 cells assessed as decrease in Mcl-1 protein expression measured after 48 hrs by Western blot analysis; format: functional, cell-based; conditions: dose 15-45 nmol/L, DDE = dose-dependent effect
MGC-803 [20] = assay: Induction of apoptosis in human MGC-803 cells assessed as increase in cleaved caspase 9 expression at 15 to 45 nmol/L measured after 48 hrs by Western blot analysis; format: functional, cell-based; conditions: dose 15-45 nmol/L
MGC-803 [21] = assay: Induction of apoptosis in human MGC-803 cells assessed as increase in cleaved PARP expression at 15 to 45 nmol/L measured after 48 hrs by Western blot analysis; format: functional, cell-based; conditions: dose 15-45 nmol/L
SGC-7901 [22] = assay: Induction of apoptosis in human SGC-7901 cells assessed as increase in cleaved PARP expression at 15 to 45 nmol/L measured after 48 hrs by Western blot analysis; format: functional, cell-based; conditions: dose 15-45 nmol/L
MGC-803 [23] = assay: Induction of morphological changes in human MGC-803 cells assessed as change in concentration of nuclei at 15 to 45 nmol/L measured after 48 hrs by DAPI staining based microscopic analysis; format: functional, cell-based; conditions: dose 15-45 nmol/L
SGC-7901 [24] = assay: Induction of morphological changes in human SGC-7901 cells assessed as change in concentration of nuclei at 15 to 45 nmol/L measured after 48 hrs by DAPI staining based microscopic analysis; format: functional, cell-based; conditions: dose 15-45 nmol/L
SGC-7901 [25] = assay: Induction of morphological changes in human SGC-7901 cells assessed as cell fragmentation at 15 to 45 nmol/L measured after 48 hrs by bright field microscopic analysis; format: functional, cell-based; conditions: dose 15-45 nmol/L
SGC-7901 [26] = assay: Induction of morphological changes in human SGC-7901 cells assessed as decrease in density at 15 to 45 nmol/L measured after 48 hrs by bright field microscopic analysis; format: functional, cell-based; conditions: dose 15-45 nmol/L

## C/C=C/C(=O)N(Cc1ccc(OC)c(O)c1)c1cc(OC)c(OC)c(OC)c1
MGC-803 [1]
  pIC50: 7.57
SGC-7901 [2]
  pIC50: 7.60
DU-145
  pIC50: 7.09
A549
  pIC50: 7.23
ECa-109 cell line
  pIC50: 7.07
TE-1
  pIC50: 7.03
SMMC-7721
  pIC50: 7.37
SGC-7901 [3]
  Activity: Dde
SGC-7901 [4]
  Activity: Tde
GES1
  Activity: Non-Toxic
HUVEC
  Activity: Non-Toxic
[5]
  Activity: Dde
Tubulin (Homo sapiens)
  Activity: Dde
MGC-803 [6]
  Activity: Dde
SGC-7901 [7]
  Activity: Dde
MGC-803 [8]
  Activity: Dde
MGC-803 [9]
  Activity: Dde
SGC-7901 [10]
  Activity: Dde
MGC-803 [11]
  Activity: Active
MGC-803 [12]
  Activity: Active
MGC-803 [13]
  Activity: Active
SGC-7901 [14]
  Activity: Active
SGC-7901 [15]
  Activity: Active
SGC-7901 [16]
  Activity: Dde
MGC-803 [17]
  Activity: Dde
SGC-7901 [18]
  Activity: Dde
MGC-803 [19]
  Activity: Dde
MGC-803 [20]
  Activity: Active
MGC-803 [21]
  Activity: Active
SGC-7901 [22]
  Activity: Active
MGC-803 [23]
  Activity: Active
SGC-7901 [24]
  Activity: Active
SGC-7901 [25]
  Activity: Active
SGC-7901 [26]
  Activity: Active
